Data published in patent publication US11753404B2, “Aminothiazole compounds as c-Kit inhibitors” (Ariad Pharmaceuticals, Inc., priority 2016, dated 2023).

What was measured:
Test in all cases: c-Kit assay: Ba/F3 KIT mutant cell viability (Cell Titer-Glo, 72 hours)
Assay type in all cases: cell-based
Conditions in all cases: viability after 72 hours
[1] = molecular target: T1, BAF3 FL KIT EX11DEL/T670I (Homo sapiens, UniProt P10721, T670I, cells depend on it, form not given)
T1 construct: BAF3 FL KIT EX11DEL/T670I
T1 sequence (P10721 with tags, fused parts or gaps DEL557-558/T670I, form open): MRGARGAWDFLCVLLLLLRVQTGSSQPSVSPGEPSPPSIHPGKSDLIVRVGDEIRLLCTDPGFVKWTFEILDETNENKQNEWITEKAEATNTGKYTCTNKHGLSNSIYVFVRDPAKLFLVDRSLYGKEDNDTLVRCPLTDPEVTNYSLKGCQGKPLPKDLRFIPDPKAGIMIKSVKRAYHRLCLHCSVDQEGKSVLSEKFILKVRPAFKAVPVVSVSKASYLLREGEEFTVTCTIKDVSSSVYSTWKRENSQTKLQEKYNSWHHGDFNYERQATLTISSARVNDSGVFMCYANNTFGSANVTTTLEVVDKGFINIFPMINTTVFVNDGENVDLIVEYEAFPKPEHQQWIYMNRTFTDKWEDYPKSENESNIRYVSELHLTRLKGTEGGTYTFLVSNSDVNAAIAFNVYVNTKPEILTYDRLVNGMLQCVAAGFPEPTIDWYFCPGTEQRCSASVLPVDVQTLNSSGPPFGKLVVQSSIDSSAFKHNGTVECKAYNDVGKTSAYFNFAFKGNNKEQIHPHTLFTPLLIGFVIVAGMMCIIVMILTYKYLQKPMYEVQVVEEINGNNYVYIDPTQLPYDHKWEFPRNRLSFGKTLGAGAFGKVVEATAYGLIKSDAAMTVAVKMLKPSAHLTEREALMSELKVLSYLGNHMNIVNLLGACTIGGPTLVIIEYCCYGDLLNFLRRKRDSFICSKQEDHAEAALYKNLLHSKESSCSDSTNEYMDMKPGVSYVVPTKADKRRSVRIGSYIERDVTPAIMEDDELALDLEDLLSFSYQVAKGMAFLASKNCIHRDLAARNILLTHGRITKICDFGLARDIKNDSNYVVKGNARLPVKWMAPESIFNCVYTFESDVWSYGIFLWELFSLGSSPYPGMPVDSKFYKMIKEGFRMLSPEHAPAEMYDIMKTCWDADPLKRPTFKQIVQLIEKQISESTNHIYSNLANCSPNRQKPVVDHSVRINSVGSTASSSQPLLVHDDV
Method: (§1) Generation of DBa/F3 KIT Mutant Engineered Cell Lines
(§2) KIT cDNAs were synthesized by GenScript and cloned into the pLVX-IRES-Puro vector (Clontech). Viral particles were produced by transfecting pLVX-IRES-puro vectors containing KIT mutant genes into HEK293 cells (Invitrogen) using the Trans-Lentiviral ORF Packaging Kit (Thermo Scientific). 48 hours post-transfection, virus-containing supernatants were harvested and incubated for another 48-72 hours with parental Ba/F3 cells (DSMZ) in the presence of 10 ng/mL IL-3 (R&D Systems). Transduced Ba/F3 cells were then selected by IL-3 withdrawal and puromycin (0.5-1 μg/mL, Invitrogen).
(§3) Cell lines (e.g., EX11DEL, EX11DEL/D816H, EX11DEL/T670I, and EX11DEL/V654A) were plated into 384 well plates using RPMI 1640 supplemented with 10% FBS at densities that produced linear growth and incubated at 37° C. in 5% (v/v) CO2. Cells were treated with eight concentrations of compound over a 4-fold dilution (10 μM to 0.61 nM) and viability was assessed using Cell Titer-Glo assay (Promega) after 72 hours. Data were plotted as percent viability relative to vehicle-treated cells. Dose-responses curves were generated and used to calculate IC50 values.

[2] = molecular target: T2, BAF3 FL KIT EX11DEL/D816H (Homo sapiens, UniProt P10721, D816H, cells depend on it, form not given)
T2 construct: BAF3 FL KIT EX11DEL/D816H
T2 sequence (P10721 with tags, fused parts or gaps DEL557-558/D816H, form open): as the sequence (P10721 with tags, fused parts or gaps DEL557-558/T670I, form open) above, with I668T, D814H counted along it
Method: as §1, §2, §3

[3] = molecular target: T3, BAF3 FL KIT EX11DEL/V654A (Homo sapiens, UniProt P10721, V654A, cells depend on it, form not given)
T3 construct: BAF3 FL KIT EX11DEL/V654A
T3 sequence (P10721 with tags, fused parts or gaps DEL557-558/V654A, form open): as the sequence (P10721 with tags, fused parts or gaps DEL557-558/T670I, form open) above, with V652A, I668T counted along it
Method: as §1, §2, §3

[4] = molecular target: T4, BAF3 FL KIT EX11DEL (Homo sapiens, UniProt P10721, cells depend on it, form not given)
T4 construct: BAF3 FL KIT EX11DEL
T4 sequence (P10721 with tags, fused parts or gaps DEL557-558): as the sequence (P10721 with tags, fused parts or gaps DEL557-558/T670I, form open) above, with I668T counted along it
Method: as §1, §2, §3

Row | SMILES | GI50 [1] [nM] | GI50 [2] [nM] | GI50 [3] [nM] | GI50 [4] [nM]
1 | Cc1ccc(C(=O)Nc2cc(C(F)(F)F)ccn2)cc1C#Cc1cnc(NC(=O)N(C)C)s1 [I-1, 3-((2-(3,3-dimethylureido)thiazol-5-yl)ethynyl)-4-methyl-N-(4-(trifluoromethyl)pyridin-2-yl)benzamide] | < 10 | < 10 | < 10 | < 10
2 | Cc1ccc(C(=O)Nc2cc(C(F)(F)F)ccn2)cc1C#Cc1cnc(NC(N)=O)s1 [I-2, 4-methyl-N-(4-(trifluoromethyl)pyridin-2-yl)-3-((2-ureidothiazol-5-yl)ethynyl)benzamide] | < 10 | 10 to 50 | < 10 | < 10
3 | COC(=O)Nc1ncc(C#Cc2cc(C(=O)Nc3cc(C(F)(F)F)ccn3)ccc2C)s1 [I-3, methyl (5-((2-methyl-5-((4-(trifluoromethyl)pyridin-2-yl)carbamoyl)phenyl)ethynyl)thiazol-2-yl)carbamate] | 10 to 50 | 10 to 50 | 10 to 50 | < 10
4 | CNC(=O)Nc1ncc(C#Cc2cc(C(=O)Nc3cc(C(F)(F)F)ccn3)ccc2C)s1 [I-4, 4-methyl-3-((2-(3-methylureido)thiazol-5-yl)ethynyl)-N-(4-(trifluoromethyl)pyridin-2-yl)benzamide] | < 10 | < 10 | 10 to 50 | < 10
5 | COCCNC(=O)Nc1ncc(C#Cc2cc(C(=O)Nc3cc(C(F)(F)F)ccn3)ccc2C)s1 [I-5, 3-((2-(3-(2-methoxyethyl)ureido)thiazol-5-yl)ethynyl)-4-methyl-N-(4-(trifluoromethyl)pyridin-2-yl)benzamide] | 10 to 50 | 10 to 50 | 10 to 50 | < 10
6 | Cc1ccc(C(=O)Nc2cc(C(F)(F)F)ccn2)cc1C#Cc1cnc(NC(=O)NCCN2CCOCC2)s1 [I-6, 4-methyl-3-((2-(3-(2-morpholinoethyl)ureido)thiazol-5-yl)ethynyl)-N-(4-(trifluoromethyl)pyridin-2-yl)benzamide] | 10 to 50 | 10 to 50 | 10 to 50 | < 10
7 | COCCN(C)C(=O)Nc1ncc(C#Cc2cc(C(=O)Nc3cc(C(F)(F)F)ccn3)ccc2C)s1 [I-7, 3-((2-(3-(2-methoxyethyl)-3-methylureido)thiazol-5-yl)ethynyl)-4-methyl-N-(4-(trifluoromethyl)pyridin-2-yl)benzamide] | < 10 | 10 to 50 | 10 to 50 | < 10
8 | CCN(C)C(=O)Nc1ncc(C#Cc2cc(C(=O)Nc3cc(C(F)(F)F)ccn3)ccc2C)s1 [I-8, 3-((2-(3-ethyl-3-methylureido)thiazol-5-yl)ethynyl)-4-methyl-N-(4-(trifluoromethyl)pyridin-2-yl)benzamide] | < 10 | < 10 | 10 to 50 | < 10
9 | Cc1ccc(C(=O)Nc2cc(C(F)(F)F)ccn2)cc1C#Cc1cnc(NC(=O)N(C)CCN(C)C)s1 [I-9, 3-((2-(3-(2-(dimethylamino)ethyl)-3-methylureido)thiazol-5-yl)ethynyl)-4-methyl-N-(4-(trifluoromethyl)pyridin-2-yl)benzamide] | < 10 | 10 to 50 | 10 to 50 | < 10
10 | Cc1ccc(C(=O)Nc2cc(C(F)(F)F)ccn2)cc1C#Cc1cnc(NC(=O)N(C)CCO)s1 [I-10, 3-((2-(3-(2-hydroxyethyl)-3-methylureido)thiazol-5-yl)ethynyl)-4-methyl-N-(4-(trifluoromethyl)pyridin-2-yl)benzamide] | < 10 | < 10 | < 10 | < 10
11 | Cc1ccc(C(=O)Nc2cc(C(F)(F)F)ccn2)cc1C#Cc1cnc(NC(=O)NCCN(C)C)s1 [I-11, 3-((2-(3-(2-(dimethylamino)ethyl)ureido)thiazol-5-yl)ethynyl)-4-methyl-N-(4-(trifluoromethyl)pyridin-2-yl)benzamide] | 10 to 50 | 10 to 50 | 10 to 50 | < 10
12 | Cc1ccc(C(=O)Nc2cc(C(F)(F)F)ccn2)cc1C#Cc1cnc(NC(=O)NCCN2CCCC2)s1 [I-12, 4-methyl-3-((2-(3-(2-(pyrrolidin-1-yl)ethyl)ureido)thiazol-5-yl)ethynyl)-N-(4-(trifluoromethyl)pyridin-2-yl)benzamide] | 50 to 100 | 10 to 50 | 50 to 100 | < 10
13 | Cc1ccc(C(=O)Nc2cc(C(F)(F)F)ccn2)cc1C#Cc1cnc(NC(=O)NCC2CCN(C)CC2)s1 [I-13, 4-methyl-3-((2-(3-((1-methylpiperidin-4-yl)methyl)ureido)thiazol-5-yl)ethynyl)-N-(4-(trifluoromethyl)pyridin-2-yl)benzamide] | 10 to 50 | 10 to 50 | 10 to 50 | < 10
14 | Cc1ccc(C(=O)Nc2cc(C(F)(F)F)ccn2)cc1C#Cc1cnc(NC(=O)NCCN2CCN(C)CC2)s1 [I-14, 4-methyl-3-((2-(3-(2-(4-methylpiperazin-1-yl)ethyl)ureido)thiazol-5-yl)ethynyl)-N-(4-(trifluoromethyl)pyridin-2-yl)benzamide] | 10 to 50 | 10 to 50 | 10 to 50 | < 10
15 | Cc1ccc(C(=O)Nc2cc(C(F)(F)F)ccn2)cc1C#Cc1cnc(NC(=O)NCC(C)(C)O)s1 [I-15, 3-((2-(3-(2-hydroxy-2-methylpropyl)ureido)thiazol-5-yl)ethynyl)-4-methyl-N-(4-(trifluoromethyl)pyridin-2-yl)benzamide] | 10 to 50 | 10 to 50 | 10 to 50 | < 10
16 | Cc1ccc(C(=O)Nc2cc(C(F)(F)F)ccn2)cc1C#Cc1cnc(NC(=O)N(C)CCN2CCN(C)CC2)s1 [I-16, 4-methyl-3-((2-(3-methyl-3-(2-(4-methylpiperazin-1-yl)ethyl)ureido)thiazol-5-yl)ethynyl)-N-(4-(trifluoromethyl)pyridin-2-yl)benzamide] | < 10 | 10 to 50 | 10 to 50 | < 10
17 | Cc1ccc(C(=O)Nc2cc(C(F)(F)F)ccn2)cc1C#Cc1cnc(NC(=O)NC2CC2)s1 [I-17, 3-((2-(3-cyclopropylureido)thiazol-5-yl)ethynyl)-4-methyl-N-(4-(trifluoromethyl)pyridin-2-yl)benzamide] | 10 to 50 | 10 to 50 | 10 to 50 | < 10
18 | Cc1ccc(C(=O)Nc2cc(C(F)(F)F)ccn2)cc1C#Cc1cnc(NC(=O)NCCN2CCC(O)C2)s1 (stereo not drawn) [I-18, 3-((2-(3-(2-(3-hydroxypyrrolidin-1-yl)ethyl)ureido)thiazol-5-yl)ethynyl)-4-methyl-N-(4-(trifluoromethyl)pyridin-2-yl)benzamide] | 10 to 50 | 10 to 50 | 10 to 50 | < 10
19 | Cc1ccc(C(=O)Nc2cc(C(F)(F)F)ccn2)cc1C#Cc1cnc(NC(=O)N(C)CCN2CCCC2)s1 [I-19, 4-methyl-3-((2-(3-methyl-3-(2-(pyrrolidin-1-yl)ethyl)ureido)thiazol-5-yl)ethynyl)-N-(4-(trifluoromethyl)pyridin-2-yl)benzamide] | 10 to 50 | 10 to 50 | 10 to 50 | < 10
20 | Cc1ccc(C(=O)Nc2cc(C(F)(F)F)ccn2)cc1C#Cc1cnc(NC(=O)N(C)CC2CCCN2C)s1 (stereo not drawn) [I-20, 4-methyl-3-((2-(3-methyl-3-((1-methylpyrrolidin-2-yl)methyl)ureido)thiazol-5-yl)ethynyl)-N-(4-(trifluoromethyl)pyridin-2-yl)benzamide] | 10 to 50 | 10 to 50 | 10 to 50 | < 10
21 | Cc1ccc(C(=O)Nc2cc(C(F)(F)F)ccn2)cc1C#Cc1cnc(NC(=O)N(C)CC(C)(C)O)s1 [I-21, 3-((2-(3-(2-hydroxy-2-methylpropyl)-3-methylureido)thiazol-5-yl)ethynyl)-4-methyl-N-(4-(trifluoromethyl)pyridin-2-yl)benzamide] | 10 to 50 | 10 to 50 | 10 to 50 | < 10
22 | Cc1ccc(NC(=O)c2cc(C(F)(F)F)ccn2)cc1C#Cc1cnc(NC(=O)N(C)C2CCN(C)CC2)s1 [I-53, N-(4-methyl-3-((2-(3-methyl-3-(I-methylpiperidin-4-yl)ureido)thiazol-5-yl)ethynyl)phenyl)-4-(trifluoromethyl)picolinamide] | 50 to 100 | 10 to 50 | 10 to 50 | 
23 | Cc1ccc(NC(=O)c2cc(C(F)(F)F)ccn2)cc1C#Cc1cnc(NC(=O)N(C)CCN2CCN(C)CC2)s1 [I-55, N-(4-methyl-3-((2-(3-methyl-3-(2-(4-methylpiperazin-1-yl)ethyl)ureido)thiazol-5-yl)ethynyl)phenyl)-4-(trifluoromethyl)picolinamide] | 50 to 100 | 10 to 50 | 10 to 50 | 
